Experimental data published in US10889553B2, “Asymmetric triazole benzamide derivatives and the compositions and methods of treatment regarding the same” (NysnoBio Ireland DAC, priority 2017, dated 2021).
Values joined by “and” are separate entries in the source; they are usually repeats but may differ in a detail not shown here. Identical values can stand only once.

Molecular target: T1, Parkin ligase (Homo sapiens, UniProt O60260)
T1 sequence (O60260 1-465): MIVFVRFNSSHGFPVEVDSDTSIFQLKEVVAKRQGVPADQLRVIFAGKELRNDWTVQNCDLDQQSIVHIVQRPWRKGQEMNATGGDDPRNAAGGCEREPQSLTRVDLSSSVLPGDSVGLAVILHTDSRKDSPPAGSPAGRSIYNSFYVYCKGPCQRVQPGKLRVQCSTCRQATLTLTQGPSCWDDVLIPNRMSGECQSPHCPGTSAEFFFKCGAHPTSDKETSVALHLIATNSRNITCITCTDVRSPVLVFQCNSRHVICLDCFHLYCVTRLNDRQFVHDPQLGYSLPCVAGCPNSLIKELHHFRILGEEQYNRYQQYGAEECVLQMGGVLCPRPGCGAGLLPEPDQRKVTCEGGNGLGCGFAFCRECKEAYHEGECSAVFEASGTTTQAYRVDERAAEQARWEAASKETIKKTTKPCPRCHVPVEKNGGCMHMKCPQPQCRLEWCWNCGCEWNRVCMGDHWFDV
Assay: Activity-Based Probe Assay using Ubiquitin vinyl sulfone probe (TR-FRET)
Type: biochemical
Conditions: heat activated Parkin, HA-Ub-VS probe, activation EC50; read-out: Probe Assay EC50 (μM) [Example 2]
Procedure, shortened: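 Heat-activated His-Parkin (5 min, 58 °C; 40 nM) was preincubated 15 min with compound, then reacted 60 min at 22 °C with 70 nM HA-Ub-VS in 50 mM HEPES pH 8.5, 150 mM NaCl, 0.01% Tween 20, 0.1% BSA. Probe labelling was read by anti-His-Eu/anti-HA-XL665 TR-FRET (665/615 ratio). % activation was normalized to DMSO and 100 nM control activator, then fitted with a four-parameter curve (Bottom=0, Top=100).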

`C#Cc1ccc(C(=O)Nc2nc(NC(=O)c3cccc(N=[N+]=[N-])c3)n(-c3ccccc3)n2)cc1` [Compound 2] gave an EC50 of 4 µM.
In the case of `Cc1ccccc1C(=O)Nc1nc(NC(=O)c2cccnc2)nn1-c1ccccc1` [Compound 6], the EC50 is reported as 2 µM.
With `Cc1ccccc1C(=O)Nc1nc(NC(=O)c2ccno2)n(-c2ccccc2)n1` [Compound 7] the EC50 was 12 µM.
Compound `Cc1ccccc1C(=O)Nc1nc(NC(=O)c2ccccn2)nn1-c1ccccc1` [Compound 16] has an EC50 of 3 µM.
For `Cc1ccccc1C(=O)Nc1nc(NC(=O)c2cnccn2)n(-c2ccccc2)n1` [Compound 17], the EC50 was 10 µM.
For `Cc1ccccc1C(=O)Nc1nc(NC(=O)C2CCCN2)nn1-c1ccccc1` (stereo not drawn) [Compound 20], the EC50 was 2 µM.
For `Cc1ccc(C(=O)Nc2nc(NC(=O)c3ccc(C)cc3)n(-c3ccccc3)n2)cc1` [Compound 21], the EC50 was 5 µM.
With `COc1ccccc1C(=O)Nc1nc(NC(=O)c2ccccc2OC)n(-c2ccccc2)n1` [Compound 23] the EC50 was 10 µM.
For `Cc1ccccc1C(=O)Nc1nc(NC(=O)c2ccccc2C)n(-c2ccc(F)c(F)c2)n1` [Compound 24], the EC50 was 3 µM.
For `Cc1ccccc1C(=O)Nc1nc(NC(=O)c2ccccc2C)n(-c2ccc(C(F)(F)F)cc2)n1` [Compound 25], the EC50 was 0.9 µM and 2 µM.
`Cc1ccccc1C(=O)Nc1nc(NC(=O)c2ccccc2C)n(-c2ccccc2Cl)n1` [Compound 26] was tested, and the EC50 was 6 µM.
With `Cc1ccc(-n2nc(NC(=O)c3ccccc3C)nc2NC(=O)c2ccccc2C)cc1` [Compound 31] the EC50 was 4 µM.
Compound `Cc1ccccc1C(=O)Nc1nc(NC(=O)c2ccccc2C)n(-c2ccccc2F)n1` [Compound 32] has an EC50 of 9 µM.
For `O=C(Nc1nc(NC(=O)c2ccncc2)n(-c2ccccc2)n1)c1ccncc1` [Compound 33], the EC50 was 3 µM.
In the case of `Cc1ccccc1C(=O)Nc1nc(NC(=O)c2ccncc2)nn1-c1ccccc1` [Compound 34], the EC50 is reported as 2 µM.
`Cc1ccccc1C(=O)Nc1nc(NC(=O)c2ccccc2C)n(-c2ccc(C#N)cc2)n1` [Compound 35] gave an EC50 of 3 µM.
`Cc1ccccc1C(=O)Nc1nc(NC(=O)c2ccccc2C)n(-c2cccc(Cl)c2)n1` [Compound 36] was tested, and the EC50 was 3 µM and 4 µM.
`COc1ccc(C(=O)Nc2nc(NC(=O)c3ccc(OC)cc3)n(-c3ccccc3)n2)cc1` [Compound 37] gave an EC50 of 4 µM.
With `Cc1cccc(-n2nc(NC(=O)c3ccccc3C)nc2NC(=O)c2ccccc2C)c1` [Compound 38] the EC50 was 5 µM.
`Cc1ccccc1C(=O)Nc1nc(NC(=O)c2ccccc2C)n(-c2cccc(F)c2)n1` [Compound 39] showed an EC50 of 4 µM.
Compound `O=C(Nc1nc(NC(=O)c2cccnc2)n(-c2ccccc2)n1)c1cccnc1` [Compound 40] has an EC50 of 1 µM.
With `O=C(Nc1nc(NC(=O)c2ccccn2)n(-c2ccccc2)n1)c1ccccn1` [Compound 41] the EC50 was 2 µM.
In the case of `Cc1ccccc1C(=O)Nc1nc(NC(=O)c2ccccc2C)n(-c2ccc(OC(F)(F)F)cc2)n1` [Compound 42, N,N′-(1-(4-(trifluoromethoxy)phenyl)-1H-1,2,4-triazole-3,5-diyl)bis(2-methylbenzamide)], the EC50 is reported as 1 µM and 3 µM.
`Cc1ccccc1C(=O)Nc1nc(NC(=O)c2ccccc2C)n(-c2ccc(N3CCCCC3)cc2)n1` [Compound 44] was tested, and the EC50 was 3 µM.
In the case of `Cc1ccccc1C(=O)Nc1nc(NC(=O)c2ccccc2C)n(-c2ccc(F)cc2F)n1` [Compound 46], the EC50 is reported as 6 µM.
With `Cc1ccccc1C(=O)Nc1nc(NCc2ccccc2)nn1-c1ccc(C(F)(F)F)cc1` [Compound 102] the EC50 was 2 µM.
`Cc1ccnc(-c2nc(NC(=O)c3ccccc3C)n(-c3ccccc3)n2)c1` [Compound 124] was tested, and the EC50 was 3 µM.
